{"source": "patent US20240398785A1", "about": "“SMALL MOLECULE DRUGS FOR THE INDUCTION OF TRAINED IMMUNITY” (THE UNIVERSITY OF CHICAGO, priority 2023, published 2024)", "key": {"[1]": {"system": "BMDMs", "test": "A1155463 training with inhibitor pre-treatment (MTA, EGCG, 2-DG)", "format": "cell-based, mouse", "experimental": "FIGS. 5A-5F: Testing A1155463 as an inducer of trained immunity (TI) in vitro. FIG. 5A is a schematic diagram for in-vitro TI assay in bone marrow-derived macrophages (BMDMs). FIG. 5B is a graph showing interleukin-6 (IL-6) levels (expressed in picograms per milliliter (pg/ml) 24 hours (h) post PAM3-CSK4 (Pam3) challenge in an in-vitro TI assay in BMDMs trained with either phosphate buffered saline (PBS) (black) or A1155463 (pink); n=15. FIG. 5C is a graph showing tumor necrosis factor alpha (TNF-α) levels (pg/ml) 24 h post Pam3 challenge in an in-vitro TI assay in BMDMs trained with either PBS (black) or A1155463 (pink); n=10. FIG. 5D is a graph showing IL-6 levels (pg/ml) 24 h post-stimulation with PBS (black) or A1155463 (pink); n=3. FIG. 5E is a graph showing the fold change in TNF-α following Pam3 challenge in BMDMs trained with A1155463 pre-treated with PBS, MTA (histone methyl transferase inhibitor), EGCG (histone acetyltransferase inhibitor) or 2-DG (glycolysis inhibitor); n=15, significance compared with PBS control of each inhibitor. FIG. 5F is a graph of IL-6 levels (pg/ml) 24 h post Pam3 challenge in an in-vitro TI assay in BMDMs trained with either PBS (black) or A1155463 (pink) pretreated with varying concentrations of 2-DG; n=5.\nAfter ruling out apoptosis and innate inflammation, an additional study was performed to attempt to determine the mechanism of action of A1155463-induced training in BMDMs. Training induces epigenetic and metabolic rewiring of macrophages which can be probed using small molecule inhibitors of various pathways.^16 Epigenetic changes are associated with increased histone methylation and acetylation, promoting transcription and translation of proinflammatory cytokines in response to pathogenic stimuli. Metabolic changes alter cellular metabolism, mostly favoring glycolysis, to meet the higher energy requirements of a trained cell. […]"}, "[2]": {"system": "mice", "test": "A1155463 in-vivo training, LPS challenge", "set-up": "species or system mouse", "experimental": "FIGS. 6A-6H: in-vivo A1155463 trained immunity (TI) assays. FIG. 6A is a schematic showing the in-vivo training schedule. Mice were dosed intraperitoneally (i.p.) with training material (PBS or A1155463 at 15 milligrams per kilogram body weight (mg/kg)) daily for six days. […] FIG. 6B is a graph showing the interleukin-6 (IL-6) and tumor necrosis factor-alpha (TNF-α) levels (expressed as picograms per milliliter (pg/ml) 1 hour (h) following LPS challenge with either PBS (black) or A1155463 (pink); n=5. FIG. 6C is a graph showing the percentage (%) of small peritoneal macrophages (SPMs) from the peritoneal cavity of PBS (black) or A1155463 trained (pink) mice 2 h post LPS challenge on day 7. FIG. 6D is a graph showing the IL-6 levels (pg/ml) from bone-marrow cells isolated on day 7 challenged ex-vivo with LPS from either PBS (black) or A1155463 (pink) trained mice; n=3. FIG. 6E is a schematic showing the in-vivo training schedule for B16.F10 tumor challenge. FIG. 6F is a graph showing the tumor volumes (in cubic millimeters (mm3)) of mice trained with PBS (black) or A1155463 (pink) mice; n=8. FIG. 6G is a schematic of the in-vivo training schedule for B16.F10 tumor challenge with checkpoint therapy (CPT) administered on day 14 and 17. FIG. 6H is a graph showing tumor volumes (mm^3) of mice trained with PBS (black; n=4) or A1155463 (pink; n=5).\nFIG. 10: Ruling out innate immune priming: Mice were trained with PBS or vehicle (black) or A1155463 (pink) according to schedule illustrated in FIG. 6A.\nSince A1155463 induced training effects in-vitro, its ability to induce training in mice was studied. […] The vehicle control group was also dosed similarly to account for solvent effects. To rule out the impact of innate immune priming due to the high dosage, systemic cytokines were checked for 24 hours after the last dosing on day 6. […] […].\nApart from increased systemic cytokines, recruitment of monocyte-derived small peritoneal macrophages (SPMs) is another hallmark of enhanced training. […] Central effects of trained immunity occur at the bone-marrow progenitor favoring myelopoiesis.^39 To test if A1155463 induced training effects in bone-marrow cells, cells were isolated from the bone-marrow seven days following the training schedule described in FIG. 6A. Bone-marrow cells from PBS or A1155463 trained cells were challenged with 5 ng/mL of LPS and the supernatant was analyzed 24 hours later. […]."}, "[3]": {"system": "bone-marrow cells", "test": "Bone-marrow cells of trained mice challenged ex-vivo with LPS", "format": "in vivo, mouse", "conditions": "5 ng/mL LPS ex vivo, 24 hours", "experimental": "FIGS. 6A-6H: in-vivo A1155463 trained immunity (TI) assays. FIG. 6A is a schematic showing the in-vivo training schedule. Mice were dosed intraperitoneally (i.p.) with training material (PBS or A1155463 at 15 milligrams per kilogram body weight (mg/kg)) daily for six days. Mice were challenged with […] lipopolysaccharide (LPS) on day 7. FIG. 6B is a graph showing the interleukin-6 (IL-6) and tumor necrosis factor-alpha (TNF-α) levels (expressed as picograms per milliliter (pg/ml) 1 hour (h) following LPS challenge with either PBS (black) or A1155463 (pink); n=5. FIG. 6C is a graph showing the percentage (%) of small peritoneal macrophages (SPMs) from the peritoneal cavity of PBS (black) or A1155463 trained (pink) mice 2 h post LPS challenge on day 7. FIG. 6D is a graph showing the IL-6 levels (pg/ml) from bone-marrow cells isolated on day 7 challenged ex-vivo with LPS from either PBS (black) or A1155463 (pink) trained mice; n=3. FIG. 6E is a schematic showing the in-vivo training schedule for B16.F10 tumor challenge. […]\nApart from increased systemic cytokines, recruitment of monocyte-derived small peritoneal macrophages (SPMs) is another hallmark of enhanced training. […] Bone-marrow cells from PBS or A1155463 trained cells were challenged with 5 ng/mL of LPS and the supernatant was analyzed 24 hours later. […]"}, "[4]": {"conditions": "15 mg/kg i.p. daily for 6 days, LPS 5 μg per mouse, after 1 hour"}}}
{"smiles": "CN(C)CC#Cc1ccc(OCCCc2sc(N3CCc4cccc(C(=O)Nc5nc6ccccc6s5)c4C3)nc2C(=O)O)c(F)c1", "note": "[A1155463, 2-(8-(benzo[d]thiazol-2-ylcarbamoyl)-3,4-dihydroisoquinolin-2(1H)-yl)-5-(3-(4-(3-(dimethyl-amino)prop-1-yn-1-yl)-2-fluorophenoxy)propyl)thiozole-4-carboxylic acid]", "values": [{"measurement": "training after epigenetic small molecule inhibitors (MTA, EGCG)", "setting": "[1]; 30 min pre-treatment", "value": "no significant difference"}, {"measurement": "Pam3 induced IL-6 levels with 2-DG", "setting": "[1]; different concentrations of 2-DG", "value": "significant decrease"}, {"measurement": "reduction in the TNF-α level following Pam3 challenge by 2DG pre-treatment", "setting": "[1]; glycolysis inhibitor 2DG", "value": 50, "unit": "%"}, {"measurement": "systemic IL-6 or TNF-α without challenge (priming)", "setting": "[2]; 15 mg/kg i.p. daily for 6 days, 24 hours after the last dosing", "value": "No systemic IL-6 or TNF-α was observed"}, {"measurement": "increase in IL-6 following LPS challenge", "setting": "[2]; [4]", "value": 2.3, "unit": "fold"}, {"measurement": "increase in TNF-α following LPS challenge", "setting": "[2]; [4]", "value": 1.97, "unit": "fold"}, {"measurement": "percentage of SPMs", "setting": "[2]; two hours post-LPS challenge", "value": "non-significant increase"}, {"measurement": "increase in bone-marrow derived IL-6 levels vs untrained control", "setting": "[3]", "value": "approximately 5 fold"}]}
